Results: patent publication US6642222B2, “Pyrano, piperidino, and thiopyrano compounds and methods of use” (Abbott Laboratories, priority 1998, dated 2003)

Experiments:
[1] = test system: Guinea-Pig Bladder (GPB) Cells; test: Membrane Hyperpolarization (MHP) assay, DiBAC(4)3 / FLIPR; details: Cavia porcellus; for EC50: membrane hyperpolarization, GPB cells; for Emax: read-out: Maximal Response (% P1075), maximal steady-state hyperpolarization, normalized to 10 μM P1075 (100%)
Description: Compounds were evaluated for potassium channel opening activity using primary cultured guinea-pig urinary bladder (GPB) cells.
For the preparation of urinary bladder smooth muscle cells, urinary bladders were removed from male guinea-pigs (Hartley, Charles River, Wilmington, Mass.) weighing 300-400 grams (g) and placed in ice-cold Ca^2+-free Krebs solution (Composition, millimolar (mM): KCl, 2.7; KH2PO4, 1.5; NaCl, 75; Na2HPO4, 9.6; Na2HPO4.7H2O, 8; MgSO4, 2; glucose, 5; HEPES, 10; pH 7.4). Cells were isolated by enzymatic dissociation (Klockner, U. and Isenberg, G., Pflugers Arch. (1985), 405, 329-339). The bladder was cut into small sections and incubated in 5 milliliters (mL) of the Kreb's solution containing 1 milligram per milliliter (mg/mL) of collagenase (Sigma, St. Louis, Mo.) and 0.2 mg/mL of pronase (Calbiochem, La Jolla, Calif.) with continuous stirring in a cell incubator for 30 minutes. The mixture was then centrifuged at 1300× g for 5 minutes, and the pellet resuspended in Dulbecco's phosphate buffered saline (PBS) (GIBCO, Gaithersburg, Md.) and recentrifuged to remove residual enzyme. The cell pellet was resuspended in 5 mL growth media (composition: Dulbecco's modified Eagle's medium supplemented with 10% fetal bovine serum, 100 units/mL penicillin, 100 units/mL streptomycin and 0.25 mg/mL amphotericin B) and further dissociated by pipetting the suspension through a flame-polished Pasteur pipette and passing it through a polypropylene mesh membrane (Spectrum, Houston, Tex.). The cell density was adjusted to 100,000 cells/mL by resuspension in growth media. Cells were plated in clear-bottomed black 96-well plates (Packard) for membrane potential studies at a density of 20,000 cells/well and maintained in a cell incubator with 90% air: 10% CO2 until confluent. Cells were confirmed to be of smooth muscle type by cytoskeletal staining using a monoclonal mouse anti human-α-smooth muscle actin (Biomeda, Foster City, Calif.).
Functional activity at potassium channels was measured by evaluating changes in membrane potential using the bis-oxonol dye DiBAC(4)3 (Molecular Probes) in a 96-well cell-based kinetic assay system using a Fluorescent Imaging Plate Reader (FLIPR) (K. S. Schroeder et al., J. Biomed. Screen., v. 1 pp. 75-81 (1996)). DiBAC(4)3 is an anionic potentiometric probe which partitions between cells and extracellular solution in a membrane potential-dependent manner. With increasing membrane potential (for example, K^+ depolarization), the probe further partitions into the cell; this is measured as an increase in fluorescence due to dye interaction with intracellular lipids and proteins. Conversely, decreasing membrane potential (hyperpolarization by potassium channel openers) evokes a decrease in fluorescence.
Confluent guinea-pig urinary bladder cells cultured in black clear-bottomed 96-well plates were rinsed twice with 200 mL assay buffer (composition, mM: HEPES, 20; NaCl, 120; KCl, 2; CaCl2, 2; MgCl2, 1; glucose, 5; pH 7.4 at 25° C.) containing 5 μM DiBAC(4)3 and incubated with 180 mL of the buffer in a cell incubator for 30 minutes at 37° C. to ensure dye distribution across the membrane. After recording the baseline fluorescence for 5 minutes, the reference or test compounds, prepared at 10 times the concentration in the assay buffer, were added directly to the wells. Changes in fluorescence were monitored for an additional 25 minutes.
Routinely, five concentrations of P1075 or test compounds (log or half-log dilutions) were evaluated and the maximal steady-state hyperpolarization values (expressed as % relative to P1075) plotted as a function of concentration. The EC50 (concentration that elicites 50% of the maximal response for the test sample) values were calculated by non-linear regression analysis using a four parameter sigmoidal equation. The maximal micromolar EC50 response of each compound (expressed as % relative to P1075) is reported.

`CCC1OC(=O)C2=C1NC1=C(C(=O)COC1)C2c1ccc(F)c(Br)c1` (single isomer, unassigned) [Example 96, 9-(3-bromo-4-fluorophenyl)-3-ethyl-5,9-dihydro-3H-furo[3,4-b]pyrano[4,3-e]pyridine-1,8(4H,7H)-dione] showed a melting point of 246 to 248 °C.

`CCCC1OC(=O)C2=C1NC1=C(C(=O)COC1)C2c1ccc(F)c(Br)c1` (single isomer, unassigned) [Example 97, 9-(3-bromo-4-fluorophenyl)-3-propyl-5,9-dihydro-3H-furo[3,4-b]pyrano[4,3-e]pyridine-1,8(4H,7H)-dione] gave a melting point of 206 to 208 °C.

With `CCCC1OC(=O)C2=C1NC1=C(C(=O)COC1)C2c1ccc(F)c(Br)c1` (single isomer, unassigned) [Example 98, 9-(3-bromo-4-fluorophenyl)-3-propyl-5,9-dihydro-3H-furo[3,4-b]pyrano[4,3-e]pyridine-1,8(4H,7H)-dione] the melting point was 219 to 220 °C.

With `CN1CC(=O)C2=C(C1)NC1=C(C(=O)CCC1)C2c1ccc(F)c(Br)c1.Cl` (stereo not shown) [Example 3, 5-(3-bromo-4-fluorophenyl)-2-methyl-2,3,5,8,9,10-hexahydrobenzo[b][1,7]naphthyridine-4,6(1H, 7H)-dione Hydrochloride] the EC50 [1] was 27000 nM, the Emax [1] was 41% and the melting point was 248 to 250 °C.

In the case of `O=C1COCC2=C1C(c1ccc(F)c(Br)c1)C1=C(CNC1=O)N2` (stereo not shown) [Example 27, 9-(3-bromo-4-fluorophenyl)-2,3,5,9-tetrahydropyrano[3,4-b]pyrrolo[3,4-e]pyridine-1,8(4H,7H)-dione], the EC50 [1] is reported as 970 nM, the Emax [1] is reported as 87% and the melting point is reported as over 260 °C.

`CC1(C)CCC2=C(C1=O)C(c1ccc(F)c(Br)c1)C1=C(COCC1=O)N2` (stereo not shown) [Example 41, 5-(3-bromo-4-fluorophenyl)-7,7-dimethyl-5,8,9,10-tetrahydro-1H-pyrano[3,4-b]quinoline-4,6(3H,7H)-dione] gave an EC50 [1] of 71 nM, an Emax [1] of 66% and a melting point of over 260 °C.

For `CC1(C)OC(=O)C2=C1NC1=C(C(=O)COC1)C2c1ccc(F)c(Br)c1` (stereo not shown) [Example 99, 9-(3-bromo-4-fluorophenyl)-3,3-dimethyl-5,9-dihydro-3H-furo[3,4-b]pyrano[4,3-e]pyridine-1,8(4H,7H)-dione], the melting point was over 260 °C.
